{"source": "patent US20220313629A1", "about": "“TRANSIENT POTENTIAL MELASTATIN 8 (TRPM8) ANTAGONISTS AND RELATED METHODS” (MARSHALL UNIVERSITY RESEARCH CORPORATION, priority 2019, published 2022)", "type_in_all_cases": "cell-based", "key": {"[1]": {"biological_target": "T1, TRPM8 (Homo sapiens, UniProt Q7Z2W7)", "T1 sequence (Q7Z2W7 whole entry)": "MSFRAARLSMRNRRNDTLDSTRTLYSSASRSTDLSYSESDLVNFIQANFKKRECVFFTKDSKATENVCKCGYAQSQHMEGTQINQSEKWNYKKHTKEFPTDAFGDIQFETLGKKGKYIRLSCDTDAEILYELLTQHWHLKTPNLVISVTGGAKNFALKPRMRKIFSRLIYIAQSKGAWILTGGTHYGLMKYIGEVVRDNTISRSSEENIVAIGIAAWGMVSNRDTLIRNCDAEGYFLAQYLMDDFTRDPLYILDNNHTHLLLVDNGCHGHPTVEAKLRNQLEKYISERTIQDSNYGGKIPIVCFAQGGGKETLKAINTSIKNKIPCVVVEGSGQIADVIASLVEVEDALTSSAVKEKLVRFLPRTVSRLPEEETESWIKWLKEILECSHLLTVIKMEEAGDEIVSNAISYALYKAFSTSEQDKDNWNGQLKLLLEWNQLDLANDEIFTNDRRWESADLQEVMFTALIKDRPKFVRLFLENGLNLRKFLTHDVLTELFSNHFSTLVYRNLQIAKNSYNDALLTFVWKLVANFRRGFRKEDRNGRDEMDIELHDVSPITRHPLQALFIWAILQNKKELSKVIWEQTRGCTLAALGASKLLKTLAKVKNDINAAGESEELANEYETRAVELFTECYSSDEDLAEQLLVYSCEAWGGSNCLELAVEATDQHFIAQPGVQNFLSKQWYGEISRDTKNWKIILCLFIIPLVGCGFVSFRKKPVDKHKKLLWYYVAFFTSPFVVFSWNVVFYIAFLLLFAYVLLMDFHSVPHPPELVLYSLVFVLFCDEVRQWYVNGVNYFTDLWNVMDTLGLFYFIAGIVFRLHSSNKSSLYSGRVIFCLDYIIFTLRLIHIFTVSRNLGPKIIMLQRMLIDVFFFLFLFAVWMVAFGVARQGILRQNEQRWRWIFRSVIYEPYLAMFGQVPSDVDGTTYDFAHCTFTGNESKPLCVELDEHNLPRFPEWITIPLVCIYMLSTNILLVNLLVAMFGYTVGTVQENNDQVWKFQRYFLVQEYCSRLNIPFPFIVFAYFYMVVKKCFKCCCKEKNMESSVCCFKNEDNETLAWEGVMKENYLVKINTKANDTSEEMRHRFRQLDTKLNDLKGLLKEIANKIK", "test": "Whole-cell patch-clamp electrophysiology, menthol-evoked TRPM8 currents in HEK-293 cells transiently transfected with human TRPM8", "protocol": "HEK-293 Cell culture. Human embryonic kidney (HEK) 293 cells (ATCC CRL-1573) were cultured in growth medium comprising 90% Dulbecco's modified Eagle's medium, 10% fetal bovine serum, 100 U·mL-1 penicillin-streptomycin, and 2 mM L-glutamine (Gibco). Cells were cultured in 35 mm polystyrene dishes (Falcon) at 37° C. in the presence of 5% CO2. Cells were transiently transfected with human TRPM8 in a pIRES2 plasmid containing EGFP as a reporter. This plasmid expresses bicistronic mRNA with an internal ribosome entry site (IRES) positioned between the TRPM8 gene and the fluorescent protein reporter gene such that the reporter is not covalently fused to TRPM8. […]\nWhole-cell patch-clamp electrophysiology. […] Osmolality was measured using a Vapro 5600 vapor pressure osmometer (Wescor). […] Pipettes had resistances of 2-5 MO as measured in the extracellular solution. […] Current response from each cell was measured under each concentration of Compound 14. Only one cell was measured per cover slip to prevent confounding effects of previous exposure to menthol and Compound 14.\nData analysis. For each cell, current magnitude at each concentration of Compound 14 was normalized by dividing by the maximum current measured at 500 μM menthol and without the antagonist. Normalized currents from six cells were averaged at each concentration of antagonist, and the standard error of the mean was calculated at each point. […]"}, "[2]": {"biological_target": "T1, TRPM8", "test": "TRPM8 antagonist activity by Fura-2 Ca2+ imaging in HEK-293 cells stably expressing human TRPM8", "conditions": "for IC50: read-out: Functional Activity hTRPM8 potency IC50 ± SEM"}, "[3]": {"biological_target": "human TRPA1 (Homo sapiens, UniProt O75762)", "sequence (O75762 whole entry)": "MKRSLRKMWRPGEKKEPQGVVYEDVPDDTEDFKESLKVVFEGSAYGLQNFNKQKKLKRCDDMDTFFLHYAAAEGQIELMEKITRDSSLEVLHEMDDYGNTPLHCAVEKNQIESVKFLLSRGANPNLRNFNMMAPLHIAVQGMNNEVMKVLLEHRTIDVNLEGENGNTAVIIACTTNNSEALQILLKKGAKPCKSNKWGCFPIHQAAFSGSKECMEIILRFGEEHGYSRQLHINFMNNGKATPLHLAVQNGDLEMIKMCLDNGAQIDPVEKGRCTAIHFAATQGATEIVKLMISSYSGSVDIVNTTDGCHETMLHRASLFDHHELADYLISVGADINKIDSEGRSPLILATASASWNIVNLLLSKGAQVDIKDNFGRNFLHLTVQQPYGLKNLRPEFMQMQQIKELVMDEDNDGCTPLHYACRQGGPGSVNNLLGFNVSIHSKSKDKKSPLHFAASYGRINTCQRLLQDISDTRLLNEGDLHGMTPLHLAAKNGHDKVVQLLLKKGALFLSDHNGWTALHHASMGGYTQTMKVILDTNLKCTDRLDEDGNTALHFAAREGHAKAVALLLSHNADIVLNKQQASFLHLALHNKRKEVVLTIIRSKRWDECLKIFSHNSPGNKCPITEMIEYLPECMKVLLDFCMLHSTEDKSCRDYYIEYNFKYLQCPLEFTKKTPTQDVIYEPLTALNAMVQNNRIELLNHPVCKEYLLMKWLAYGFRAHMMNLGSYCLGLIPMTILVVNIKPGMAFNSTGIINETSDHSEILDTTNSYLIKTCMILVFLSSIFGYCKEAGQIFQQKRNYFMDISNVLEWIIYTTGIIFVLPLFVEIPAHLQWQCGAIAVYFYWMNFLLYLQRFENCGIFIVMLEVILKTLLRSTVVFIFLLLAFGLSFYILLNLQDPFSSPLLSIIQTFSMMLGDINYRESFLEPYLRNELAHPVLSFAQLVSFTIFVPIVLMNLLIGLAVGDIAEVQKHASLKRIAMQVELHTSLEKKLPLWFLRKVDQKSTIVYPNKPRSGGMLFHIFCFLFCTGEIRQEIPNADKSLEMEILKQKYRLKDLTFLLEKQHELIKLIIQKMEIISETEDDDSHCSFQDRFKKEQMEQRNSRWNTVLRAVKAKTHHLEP", "test": "TRPA1 agonist and antagonist Ca2+ flux assay (FLIPR, Fluo-8) in HEK293 cells stably expressing human TRPA1", "conditions": "for hTRPA1 % Activation (n = 3-5): normalized to Emax of AITC (300 μM)"}, "[4]": {"conditions": "HEK293, read-out: hTRPA1 % Inhibition (n = 3)"}}, "data": [{"smiles": "O=C(NC1CCC2(CCCC2)CC1)c1ccc(-c2ccccc2)cc1", "note": "[Compound 14, N-(spiro[4.5]decan-8-yl)-[1,1′-biphenyl]-4-carboxamide]", "values": [{"measurement": "antagonist activity relative to a tryptamine-based antagonist in the same assay", "setting": "[1]; patch clamp", "value": 6, "unit": "fold"}, {"measurement": "IC50", "setting": "[1]; whole-cell patch clamp, +80 mV, 500 μM menthol, n=6 cells, read-out: IC50, inhibition of menthol-evoked TRPM8 currents", "value": "64 ± 2", "unit": "nM"}, {"measurement": "effect on menthol-evoked TRPM8-mediated Ca2+ entry", "setting": "[2]; compound at 3 nM against maximal (100 μM) menthol", "value": "significantly (P<0.01) reduce TRPM8-mediated Ca^2+ entry triggered by menthol"}, {"measurement": "effect on icilin-induced Ca2+ influx at higher concentrations", "setting": "[2]; higher concentrations of the dose-response curve", "value": "nearly abolishes the Ca^2+ influx"}, {"measurement": "lowest concentration still causing significant reduction in icilin-evoked TRPM8-mediated Ca2+ entry", "setting": "[2]; icilin 500 nM", "value": 3, "unit": "nM"}, {"measurement": "IC50", "setting": "[2]; inhibition of icilin (500 nM)-evoked Ca2+ entry, HEK-293 cells stably expressing hTRPM8, mean ± SEM, three independent experiments", "value": "2.4 ± 1", "unit": "nM"}, {"measurement": "IC50", "setting": "[2]", "value": "≤ 10", "unit": "nM"}, {"measurement": "inhibition at 0.003 µM", "setting": "[3]; [4]", "value": "-6 ± 5", "unit": "%"}, {"measurement": "inhibition at 0.03 µM", "setting": "[3]; [4]", "value": "-3 ± 2", "unit": "%"}, {"measurement": "effect on hTRPA1-mediated responses (intrinsic and antagonist activity)", "setting": "[3]; at concentrations 13- to 25-fold higher than hTRPM8 IC50", "value": "do not affect"}, {"measurement": "selectivity for TRPM8 vs. TRPA1", "setting": "[3]; from FLIPR single-point assays", "value": 13, "unit": "fold"}, {"measurement": "hTRPA1 % Activation (n = 3-5)", "setting": "[3]; tested at 3 nM", "value": "−0.8 ± 0.4", "unit": "%"}, {"measurement": "hTRPA1 % Activation (n = 3-5)", "setting": "[3]; tested at 30 nM", "value": "0.1 ± 1.2", "unit": "%"}]}]}
